Experimental data reported in the supplement of paper PMC11061612.

What was measured:
COLO-679 (Melanoma) = assay: Bliss excess, mean over the matrix (fraction); higher = more synergy
Method in brief: (§1)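 Cell lines in DMEM/F12 or RPMI with 10% FBS were plated in 1536-well plates, held 24 hours at 37°C, 5% CO2, then given two-drug dose matrices for 72 hours (DMSO typically 0.2%). Viability was read by CellTiter-Glo 2.0 luminescence and scaled as inhibition from 0 (vehicle wells) to 1 (blank wells). Combination Emax is the second-highest inhibition in the matrix; Bliss excess is observed combination effect minus expected EA + EB − EA·EB, EA and EB being single-agent effects.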

[1] = system: Ca-Ski (Cervical Carcinoma); assay: as above
Method in brief: as §1

[2] = system: DU-145 (Prostate Carcinoma); assay: as above
Method in brief: as §1

[3] = system: EFO-21 (Ovarian Carcinoma); assay: as above
Method in brief: as §1

[4] = system: KGN (Other Solid Carcinomas); assay: as above
Method in brief: as §1

[5] = system: KMRC-1 (Kidney Carcinoma); assay: as above
Method in brief: as §1

[6] = system: ME-180 (Cervical Carcinoma); assay: as above
Method in brief: as §1

[7] = system: MOG-G-UVW (Low Grade Glioma); assay: as above
Method in brief: as §1

[8] = system: MOLT-4 (T-Lymphoblastic Leukemia); assay: as above
Method in brief: as §1

[9] = system: MV-4-11 (Acute Myeloid Leukemia); assay: as above
Method in brief: as §1

[10] = system: Mo-T (Other Blood Carcinomas); assay: as above
Method in brief: as §1

[11] = system: NCI-H1355 (Lung Adenocarcinoma); assay: as above
Method in brief: as §1

[12] = system: NCI-H1993 (Lung Adenocarcinoma); assay: as above
Method in brief: as §1

SK-N-AS (Neuroblastoma) [13] = assay: as above
Method in brief: as §1

[14] = system: SKN (Other Solid Carcinomas); assay: as above
Method in brief: as §1

[15] = system: SW872 (Other Solid Carcinomas); assay: as above
Method in brief: as §1

[16] = system: Ca-Ski (Cervical Carcinoma); assay: combination Emax (second highest fraction inhibited in the dose matrix, 72 h); higher = more inhibition; extreme values may be limits of the assay
Method in brief: as §1

[17] = system: ML-2 (Acute Myeloid Leukemia); assay: as above
Method in brief: as §1

[18] = system: NCI-H1993 (Lung Adenocarcinoma); assay: as above
Method in brief: as §1

SK-N-AS (Neuroblastoma) [19] = assay: as above
Method in brief: as §1
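Throughout, for Bliss excess, mean over the matrix: after 72 h of two-drug dosing.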

Row | Compound | Bliss excess (COLO-679 (Melanoma)) | Bliss excess [1] | Bliss excess [2] | Bliss excess [3] | Bliss excess [4] | Bliss excess [5] | Bliss excess [6] | Bliss excess [7] | Bliss excess [8] | Bliss excess [9] | Bliss excess [10] | Bliss excess [11] | Bliss excess [12] | Bliss excess (SK-N-AS (Neuroblastoma) [13]) | Bliss excess [14] | Bliss excess [15] | combination Emax [16] | combination Emax [17] | combination Emax [18] | combination Emax (SK-N-AS (Neuroblastoma) [19])
1 | CN(CCO)CC[C@H](CSc1ccccc1)Nc1ccc(S(=O)(=O)NC(=O)c2ccc(N3CCC([C@@H](O)c4ccccc4-c4ccc(Cl)cc4)CC3)cc2)cc1S(=O)(=O)C(F)(F)F [AZD4320] + Nc1ccn([C@@H]2O[C@H](CO)[C@@H](O)C2(F)F)c(=O)n1 [Gemcitabine] (first compound max 1 µM, 7x7, partner max 0.3 µM) | -0.0226 | 0.0469 | -0.033 | 0.0353 | -0.0204 | 0.0287 | -0.0249 | -0.0147 | -0.0209 | -0.023 | 0.114 | -0.0349 | -0.0164 | 0.0011 | 0.0198 | 0.0199 | 0.91 | 1 | 0.937 | 0.672
2 | Cc1cc2ncnn2cc1Nc1ncc2c(n1)n(C1CCOCC1)c(=O)n2C [AZD7648] + C=CCn1c(=O)c2cnc(Nc3ccc(N4CCN(C)CC4)cc3)nc2n1-c1cccc(C(C)(C)O)n1 [AZD1775] (first compound max 10 µM, partner max 1 µM) | -0.0446 | -0.0255 | -0.0341 | 0.0175 | -0.0266 | 0.0051 | -0.0378 | -0.0301 | 0.0141 | 0.053 | -0.14 | -0.0276 | -0.0167 | 0.0212 | -0.0103 | 0.0554 | 0.704 | 1 | 0.635 | 0.949
3 | CN(CCO)CC[C@H](CSc1ccccc1)Nc1ccc(S(=O)(=O)NC(=O)c2ccc(N3CCC([C@@H](O)c4ccccc4-c4ccc(Cl)cc4)CC3)cc2)cc1S(=O)(=O)C(F)(F)F [AZD4320] + Cc1cc2ncnn2cc1Nc1ncc2c(n1)n(C1CCOCC1)c(=O)n2C [AZD7648] (first compound max 1 µM, 7x7, partner max 10 µM) | -0.0351 | -0.0243 | -0.0355 | -0.0461 | -0.103 | -0.0618 | -0.007 | -0.0412 | 0.0422 | -0.0133 | -0.0057 | -0.052 | -0.0205 | -0.0399 | -0.0249 | -0.0262 | 0.208 | 0.966 | 0.785 | 0.182
4 | Cc1cc2ncnn2cc1Nc1ncc2c(n1)n(C1CCOCC1)c(=O)n2C [AZD7648] + CN(C)CCCOc1ccc(-c2ccc3ncc4c(c3c2)n(C2CCOCC2)c(=O)n4C)cn1 [AZD0156] (first compound max 10 µM, 7x7, partner max 1 µM) | -0.0259 | 0.0424 | -0.0142 | -0.0063 | -0.0424 | 0.0106 | -0.0167 | 0.0206 | 0.0068 | 0.0291 | -0.122 | -0.033 | -0.0225 | -0.008 | 0.0229 | 0.0713 | 0.296 | 0.374 | 0.517 | 0.245
5 | Cc1cc2ncnn2cc1Nc1ncc2c(n1)n(C1CCOCC1)c(=O)n2C [AZD7648] + O=C(c1cc(Cc2n[nH]c(=O)c3ccccc23)ccc1F)N1CCN(C(=O)C2CC2)CC1 [Olaparib] (first compound max 10 µM, 7x7, partner max 10 µM) | -0.039 | -0.0467 | -0.026 | -0.045 | -0.0384 | -0.015 | -0.0432 | -0.0052 | -0.0277 | -0.0389 | -0.049 | -0.0538 | -0.0321 | -0.0337 | -0.0448 | -0.0126 | 0.142 | 0.419 | 0.331 | 0.102
6 | Cc1c2c(nn1C)CSCc1cc(n(C)n1)CSc1cc(c3ccccc3c1)OCCCc1c(C(=O)O)n(C)c3c-2c(Cl)ccc13 [AZD5991] + Cn1cnc2c(F)c(Nc3ccc(Br)cc3Cl)c(C(=O)NOCCO)cc21 [Selumetinib] (first compound max 1 µM, 7x7, partner max 3 µM) | -0.0191 | 0.0502 | 0.003 | -0.0248 | -0.0338 | -0.0396 | -0.0192 | -0.0869 | 0.0167 | 0.0172 | -0.0167 | -0.0258 | 0.0043 | -0.0277 | -0.0276 | -0.003 | 0.633 | 1 | 0.511 | 0.876
7 | CN(CCO)CC[C@H](CSc1ccccc1)Nc1ccc(S(=O)(=O)NC(=O)c2ccc(N3CCC([C@@H](O)c4ccccc4-c4ccc(Cl)cc4)CC3)cc2)cc1S(=O)(=O)C(F)(F)F [AZD4320] + C[C@@H]1COCCN1C2=NC(=NC(=C2)C3(CC3)[S@](=N)(=O)C)C4=C5C=CNC5=NC=C4 [AZD6738] (first compound max 1 µM, 7x7, partner max 10 µM) | -0.0266 | -0.006 | -0.0335 | -0.0312 | -0.0198 | -0.0358 | 0.0005 | -0.0396 | -0.0084 | -0.0066 | 0.0358 | -0.0273 | -0.0073 | -0.0421 | -0.0394 | -0.039 | 0.773 | 1 | 0.766 | 0.949
8 | Cc1cc2ncnn2cc1Nc1ncc2c(n1)n(C1CCOCC1)c(=O)n2C [AZD7648] + COc1cc([C@@H]2c3cc4c(cc3[C@@H](O[C@@H]3O[C@@H]5CO[C@@H](C)O[C@H]5[C@H](O)[C@H]3O)[C@H]3COC(=O)[C@H]23)OCO4)cc(OC)c1O [Etoposide] (first compound max 10 µM, 7x7, partner max 10 µM) | -0.0745 | 0.103 | 0.0001 | 0.0562 | 0.114 | 0.0859 | 0.12 | 0.164 | 0.167 | 0.115 | 0.0928 | 0.0529 | -0.0083 | 0.0684 | 0.0503 | 0.106 | 0.884 | 0.955 | 0.79 | 0.472
9 | C[C@@H](c1ccc2nccn2c1)n1nnc2ncc(-c3cnn(C)c3)nc21 [Savolitinib] + Cc1c2c(nn1C)CSCc1cc(n(C)n1)CSc1cc(c3ccccc3c1)OCCCc1c(C(=O)O)n(C)c3c-2c(Cl)ccc13 [AZD5991] (first compound max 1 µM, 7x7, partner max 1 µM) | -0.0398 | -0.0287 | -0.0361 | -0.0454 | -0.0302 | -0.0473 | -0.0651 | 0.0359 | 0.0706 | -0.034 | -0.056 | -0.0155 | -0.0338 | -0.0749 | -0.0279 | 0.003 | 0.212 | 1 | 0.789 | 0.314
10 | CN(CCO)CC[C@H](CSc1ccccc1)Nc1ccc(S(=O)(=O)NC(=O)c2ccc(N3CCC([C@@H](O)c4ccccc4-c4ccc(Cl)cc4)CC3)cc2)cc1S(=O)(=O)C(F)(F)F [AZD4320] + C1CN(CCC1(C(=O)N[C@@H](CCO)C2=CC=C(C=C2)Cl)N)C3=NC=NC4=C3C=CN4 [Capivasertib] (first compound max 1 µM, 7x7, partner max 3 µM) | -0.0431 | 0.0249 | -0.0342 | -0.0827 | -0.0839 | 0.0094 | -0.0238 | -0.0318 | 0.0173 | 0.0185 | -0.0137 | -0.0648 | -0.0592 | -0.0397 | -0.0279 | -0.0237 | 0.766 | 0.984 | 0.791 | 0.172
11 | CN(CCO)CC[C@H](CSc1ccccc1)Nc1ccc(S(=O)(=O)NC(=O)c2ccc(N3CCC([C@@H](O)c4ccccc4-c4ccc(Cl)cc4)CC3)cc2)cc1S(=O)(=O)C(F)(F)F [AZD4320] + CCN(CCO)CCCOc1ccc2c(Nc3cc(CC(=O)Nc4cccc(F)c4)[nH]n3)ncnc2c1 [AZD2811] (first compound max 1 µM, 7x7, partner max 1 µM) | 0.0201 | 0.119 | -0.0341 | -0.0616 | -0.0739 | -0.0359 | 0.0343 | 0.03 | 0.0322 | 0.0064 | -0.003 | -0.0133 | -0.0043 | -0.0041 | 0.0383 | -0.0215 | 0.907 | 1 | 0.704 | 0.391
12 | N#Cc1cnc(Nc2cc(NC[C@H]3CNCCO3)c(C(F)(F)F)cn2)cn1 [SRA737] + Nc1ccn([C@@H]2O[C@H](CO)[C@@H](O)C2(F)F)c(=O)n1 [Gemcitabine] (first compound max 10 µM, 7x7, partner max 0.3 µM) | -0.0808 | 0.0666 | 0.0276 | 0.0169 | 0.0342 | 0.042 |  | 0.0876 | 0.0522 | -0.0314 | -0.0134 | 0.0299 | 0.0158 | -0.0283 | -0.0073 | 0.0236 | 0.815 | 1 | 0.939 | 0.712
13 | N#Cc1cnc(Nc2cc(NC[C@H]3CNCCO3)c(C(F)(F)F)cn2)cn1 [SRA737] + C=CCn1c(=O)c2cnc(Nc3ccc(N4CCN(C)CC4)cc3)nc2n1-c1cccc(C(C)(C)O)n1 [AZD1775] (first compound max 10 µM, partner max 1 µM) | -0.107 | 0.117 | -0.0105 |  | 0.0807 | -0.0048 | -0.0149 | 0.0652 | 0.12 | 0.0409 | -0.0097 | -0.0046 | 0.194 | 0.0512 | -0.0293 | 0.0756 | 0.846 | 1 | 0.88 | 0.811
